Data from US20200393446A1, “BIOLUMINESCENT SCREENING TEST FOR DETECTING CELL CYTOLYSIS” (Centre National de la Recherche Scientifique (CNRS), priority 2017, published 2020).

Assays:
K562-NanoLuc cells = experiment: Lysis of K562-NanoLuc cells by detergent, NanoLuc activity in supernatant; assay type: cell-based, human; details: cells contacted with detergent, FIG. 1A
NK cells = experiment: NK cell cytotoxicity assay: NanoLuc release from K562-NanoLuc cells co-cultured with compound-treated PBMC; assay type: cell-based, human; details: PBMCs incubated 16 hours with Clobenpropit, 400,000 PBMCs/16,000 K562-NanoLuc, four hours of co-culture, FIG. 3B
Procedure: PBMC from healthy donors were incubated overnight in the absence or presence of compounds to be tested. Unless specified otherwise, PBMC were plated in 96-well round-bottom plates at a concentration of 400,000 cells/well in a final volume of 100 μL. After 16 hours, 16.000 K562-NanoLuc or twINNE cells were added to cultures wells (100 μL of cell suspension at 160,000 cells/ml). Total volume in culture wells was 200 μL, and plates were centrifuged briefly for 2 min at 1,200 rpm. Unless specified otherwise, 20 μL of culture supernatants were collected and NanoLuc activity was determined by adding 40 μL of RPMI-1640 and 30 μL of NanoLuc reagent (Promega) in black, flat-bottom, 96½-well plates. Bioluminescence was measured during 0.1 s with a luminometer (Enspire; Perkin Elmer).

activity of the NanoLuc enzyme in the supernatant of K562-NanoLuc cells (K562-NanoLuc cells)	Molecule	cytolytic activity of NK cells (NanoLuc activity in supernatant) (NK cells)
increased	NP40	–
–	NC(=NCc1ccc(Cl)cc1)SCCCc1cnc[nH]1 [Clobenpropit]	completely inhibited
